Experimental data published in ChEMBL document CHEMBL3885881, “DrugMatrix”.

Species: Rattus norvegicus
Assay: DrugMatrix - Regimen: Daily Repeat
Assay type: toxicity, organism-based, Sprague-Dawley
Design: regimen Daily Repeat, gender Male, age 6-8 weeks
Settings: in vivo, po, route oral GAVAGE, vehicle 100 % WATER; for ABSOLUTE BASOPHIL / ABSOLUTE EOSINOPHIL / ABSOLUTE LYMPHOCYTE / ABSOLUTE MONOCYTE / ABSOLUTE SEGMENTED NEUTROPHIL / BASOPHIL / EOSINOPHIL / ERYTHROCYTE COUNT / HEMATOCRIT / HEMOGLOBIN / LEUKOCYTE COUNT / LYMPHOCYTE / MEAN CORPUSCULAR HEMOGLOBIN / MEAN CORPUSCULAR HEMOGLOBIN CONCENTRATION / MEAN CORPUSCULAR VOLUME / MONOCYTE / NEUTROPHIL / NUCLEATED RED BLOOD CELLS / PLATELET COUNT: tissue Blood; for ALANINE AMINOTRANSFERASE / ALBUMIN / ALKALINE PHOSPHATASE / ASPARTATE AMINOTRANSFERASE / BLOOD UREA NITROGEN / CARBON DIOXIDE / CHLORIDE / CHOLESTEROL / CREATINE PHOSPHOKINASE / CREATININE / GLUCOSE / LACTATE DEHYDROGENASE / LIPASE / PHOSPHORUS / POTASSIUM / SODIUM / TOTAL BILIRUBIN / TOTAL PROTEIN / URIC ACID: tissue Plasma
[1] = 0 mg/kg, 72 h, dose level Control, time 3 day
[2] = 0 mg/kg, 120 h, dose level Control, time 5 day
[3] = 33 mg/kg, 72 h, dose level Low, time 3 day
[4] = 33 mg/kg, 120 h, dose level Low, time 5 day

## C1CCN2C[C@@H]3C[C@@H](CN4CCCC[C@@H]34)[C@H]2C1 [SPARTEINE]
[1]
  ABSOLUTE BASOPHIL: 0 CELLS/uL
  ABSOLUTE EOSINOPHIL: 86.33 CELLS/uL
  ABSOLUTE LYMPHOCYTE: 12090.17 CELLS/uL
  ABSOLUTE MONOCYTE: 166.67 CELLS/uL
  ABSOLUTE SEGMENTED NEUTROPHIL: 1090.17 CELLS/uL
  BASOPHIL: 0%
  EOSINOPHIL: 0.67%
  ERYTHROCYTE COUNT: 5.57 x10E6/uL
  HEMATOCRIT: 35.33%
  HEMOGLOBIN: 13.83 G/DL
  LEUKOCYTE COUNT: 13.43 x10E3/uL
  LYMPHOCYTE: 89.83%
  MEAN CORPUSCULAR HEMOGLOBIN: 24.88 pg
  MEAN CORPUSCULAR HEMOGLOBIN CONCENTRATION: 39.15 G/DL
  MEAN CORPUSCULAR VOLUME: 63.52 fL
  MONOCYTE: 1.17%
  NEUTROPHIL: 8.33%
  NUCLEATED RED BLOOD CELLS: 0 /100WBC
  PLATELET COUNT: 1181.33 x10E3/uL
  ALANINE AMINOTRANSFERASE: 48.33 u/L
  ALBUMIN: 4.1 G/DL
  ALKALINE PHOSPHATASE: 395 u/L
  ASPARTATE AMINOTRANSFERASE: 81.83 u/L
  BLOOD UREA NITROGEN: 15.83 mg/dL
  CARBON DIOXIDE: 24.17 mmol/L
  CHLORIDE: 103.83 MEQ/L
  CHOLESTEROL: 63.67 mg/dL
  CREATINE PHOSPHOKINASE: 372.83 u/L
  CREATININE: 0.18 mg/dL
  GLUCOSE: 173.83 mg/dL
  LACTATE DEHYDROGENASE: 188.33 u/L
  LIPASE: 9.5 u/L
  PHOSPHORUS: 11.95 mg/dL
  POTASSIUM: 5.99 MEQ/L
  SODIUM: 144.43 MEQ/L
  TOTAL BILIRUBIN: 0.15 mg/dL
  TOTAL PROTEIN: 5.95 G/DL
  URIC ACID: 1.82 mg/dL
[2]
  ABSOLUTE BASOPHIL: 0 CELLS/uL
  ABSOLUTE EOSINOPHIL: 26.67 CELLS/uL
  ABSOLUTE LYMPHOCYTE: 7583.83 CELLS/uL
  ABSOLUTE MONOCYTE: 131.33 CELLS/uL
  ABSOLUTE SEGMENTED NEUTROPHIL: 674.83 CELLS/uL
  BASOPHIL: 0%
  EOSINOPHIL: 0.33%
  ERYTHROCYTE COUNT: 5.78 x10E6/uL
  HEMATOCRIT: 36.48%
  HEMOGLOBIN: 14.03 G/DL
  LEUKOCYTE COUNT: 8.42 x10E3/uL
  LYMPHOCYTE: 89.83%
  MEAN CORPUSCULAR HEMOGLOBIN: 24.3 pg
  MEAN CORPUSCULAR HEMOGLOBIN CONCENTRATION: 38.52 G/DL
  MEAN CORPUSCULAR VOLUME: 63.15 fL
  MONOCYTE: 1.67%
  NEUTROPHIL: 8.17%
  NUCLEATED RED BLOOD CELLS: 0 /100WBC
  PLATELET COUNT: 1186.67 x10E3/uL
  ALANINE AMINOTRANSFERASE: 50.17 u/L
  ALBUMIN: 4.07 G/DL
  ALKALINE PHOSPHATASE: 367.5 u/L
  ASPARTATE AMINOTRANSFERASE: 81.67 u/L
  BLOOD UREA NITROGEN: 16.17 mg/dL
  CARBON DIOXIDE: 32.33 mmol/L
  CHLORIDE: 101.5 MEQ/L
  CHOLESTEROL: 65.33 mg/dL
  CREATINE PHOSPHOKINASE: 255.33 u/L
  CREATININE: 0.17 mg/dL
  GLUCOSE: 139.33 mg/dL
  LACTATE DEHYDROGENASE: 95 u/L
  LIPASE: 10.5 u/L
  PHOSPHORUS: 10.38 mg/dL
  POTASSIUM: 6.11 MEQ/L
  SODIUM: 145.55 MEQ/L
  TOTAL BILIRUBIN: 0.17 mg/dL
  TOTAL PROTEIN: 5.98 G/DL
  URIC ACID: 0.93 mg/dL
[3]
  ABSOLUTE BASOPHIL: 0 CELLS/uL
  ABSOLUTE EOSINOPHIL: 58.33 CELLS/uL
  ABSOLUTE LYMPHOCYTE: 13527.67 CELLS/uL
  ABSOLUTE MONOCYTE: 237.33 CELLS/uL
  ABSOLUTE SEGMENTED NEUTROPHIL: 1176.67 CELLS/uL
  BASOPHIL: 0%
  EOSINOPHIL: 0.33%
  ERYTHROCYTE COUNT: 5.67 x10E6/uL
  HEMATOCRIT: 36.13%
  HEMOGLOBIN: 14 G/DL
  LEUKOCYTE COUNT: 15 x10E3/uL
  LYMPHOCYTE: 90%
  MEAN CORPUSCULAR HEMOGLOBIN: 24.8 pg
  MEAN CORPUSCULAR HEMOGLOBIN CONCENTRATION: 38.83 G/DL
  MEAN CORPUSCULAR VOLUME: 63.9 fL
  MONOCYTE: 1.67%
  NEUTROPHIL: 8%
  NUCLEATED RED BLOOD CELLS: 0.33 /100WBC
  PLATELET COUNT: 1335 x10E3/uL
  ALANINE AMINOTRANSFERASE: 50.67 u/L
  ALBUMIN: 3.9 G/DL
  ALKALINE PHOSPHATASE: 377.67 u/L
  ASPARTATE AMINOTRANSFERASE: 91 u/L
  BLOOD UREA NITROGEN: 15 mg/dL
  CARBON DIOXIDE: 25.67 mmol/L
  CHLORIDE: 102 MEQ/L
  CHOLESTEROL: 61.33 mg/dL
  CREATINE PHOSPHOKINASE: 251.67 u/L
  CREATININE: 0.12 mg/dL
  GLUCOSE: 152 mg/dL
  LACTATE DEHYDROGENASE: 249 u/L
  LIPASE: 9 u/L
  PHOSPHORUS: 13.2 mg/dL
  POTASSIUM: 6.44 MEQ/L
  SODIUM: 143.4 MEQ/L
  TOTAL BILIRUBIN: 0.13 mg/dL
  TOTAL PROTEIN: 5.73 G/DL
  URIC ACID: 1.43 mg/dL
[4]
  ABSOLUTE BASOPHIL: 0 CELLS/uL
  ABSOLUTE EOSINOPHIL: 62 CELLS/uL
  ABSOLUTE LYMPHOCYTE: 7311 CELLS/uL
  ABSOLUTE MONOCYTE: 83 CELLS/uL
  ABSOLUTE SEGMENTED NEUTROPHIL: 677.33 CELLS/uL
  BASOPHIL: 0%
  EOSINOPHIL: 0.67%
  ERYTHROCYTE COUNT: 5.58 x10E6/uL
  HEMATOCRIT: 34.4%
  HEMOGLOBIN: 13.3 G/DL
  LEUKOCYTE COUNT: 8.13 x10E3/uL
  LYMPHOCYTE: 90.33%
  MEAN CORPUSCULAR HEMOGLOBIN: 23.87 pg
  MEAN CORPUSCULAR HEMOGLOBIN CONCENTRATION: 38.67 G/DL
  MEAN CORPUSCULAR VOLUME: 61.8 fL
  MONOCYTE: 1%
  NEUTROPHIL: 8%
  NUCLEATED RED BLOOD CELLS: 0 /100WBC
  PLATELET COUNT: 1046.67 x10E3/uL
  ALANINE AMINOTRANSFERASE: 55.33 u/L
  ALBUMIN: 3.93 G/DL
  ALKALINE PHOSPHATASE: 372 u/L
  ASPARTATE AMINOTRANSFERASE: 82.67 u/L
  BLOOD UREA NITROGEN: 16.33 mg/dL
  CARBON DIOXIDE: 31.67 mmol/L
  CHLORIDE: 102.33 MEQ/L
  CHOLESTEROL: 65.33 mg/dL
  CREATINE PHOSPHOKINASE: 351.67 u/L
  CREATININE: 0.16 mg/dL
  GLUCOSE: 143.67 mg/dL
  LACTATE DEHYDROGENASE: 104.67 u/L
  LIPASE: 10 u/L
  PHOSPHORUS: 10.67 mg/dL
  POTASSIUM: 5.96 MEQ/L
  SODIUM: 145.73 MEQ/L
  TOTAL BILIRUBIN: 0.13 mg/dL
  TOTAL PROTEIN: 5.97 G/DL
  URIC ACID: 0.63 mg/dL
